Measurements as given in patent US6608086B2, “Dihydropyridines and new uses thereof” (Synaptic Pharmaceutical Corporation, priority 1993, dated 2003).
Counter-ions that a name gives are not always drawn.

SMILES	melting point
COC(=O)C1=C(C)NC(C)=C(C(=O)N(C)CCCN2CCC(c3ccccc3)(c3ccccc3)CC2)C1c1ccc([N+](=O)[O-])cc1 (stereo not shown) (as salt: hydrochloride) (hydrate or solvate) [Example 46, hydrochloride hemihydrate]	179 to 180 °C
CC(=O)C1=C(C)NC(C)=C(C(=O)NCCCN2CCC(c3ccccc3)(c3ccccc3)CC2)C1c1ccc([N+](=O)[O-])cc1 (stereo not shown) (as salt: hydrochloride) (hydrate or solvate) [Example 47, 5-Acetyl-1,4-dihydro-2,6-dimethyl-4-(4-nitrophenyl)-3-{N-[3-(4,4-diphenylpiperidin-1-yl)propyl]}carboxamidopyridine]	173 to 174 °C
COC(=O)C1=C(C)NC(C)=C(C(=O)OCCCN2CCC(c3ccccc3)CC2)C1c1ccc([N+](=O)[O-])cc1 (stereo not shown) (as salt: hydrochloride) (hydrate or solvate) [Example 48, 1,4-Dihydro-5-methazycarbonyl-2,6-dimethyl-4-(4-nitrophenyl)-3-[3-(4-phenylpiperidin-1-yl)propoxy]}carbonylpyridine hydrochloride hydrate]	139 to 140 °C
COC(=O)C1=C(C)NC(C)=C(C(=O)OCCCN2CCCCC2)C1c1ccc([N+](=O)[O-])cc1 (stereo not shown) (as salt: hydrochloride) (hydrate or solvate) [Example 50, 1,4-Dihydro-5-methoxycarbonyl-2,6-dimethyl-4-(4-nitrophenyl)-3-[3-(piperidin-1-yl)propoxy]carbonylpyridine hydrochloride etherate]	128 to 129 °C
COC(=O)C1=C(C)NC(C)=C(C(=O)NCCCN2CCCCC2)C1c1ccc([N+](=O)[O-])cc1 (stereo not shown) (as salt: hydrochloride) (hydrate or solvate) [Example 51, 1,4-Dihydro-3-methoxycarbonyl-2,6-dimethyl-4-(4-nitrophenyl)-5-{N-[3-(piperidin-1-yl)propyl]}carboxamidopyridine hydrochloride etherate]	150 to 150.5 °C
COC(=O)C1=C(C)NC(C)=C(C(=O)NCCN2CCC(c3ccccc3)(c3ccccc3)CC2)C1c1ccc([N+](=O)[O-])cc1 (stereo not shown) (as salt: hydrochloride) (hydrate or solvate) [Example 52, 1,4-Dihydro-3-methoxycarbonyl-2,6-dimethyl-4-(4-nitrophenyl)-5-{N-[2-(4,4-diphenylpiperidin-1-yl)ethyl]}carboxamidopyridine hydrochloride hemihydrate]	170 to 171 °C
CC1=C(C(N)=O)C(c2ccc([N+](=O)[O-])cc2)C(C(=O)NCCN2CCC(c3ccccc3)(c3ccccc3)CC2)=C(C)N1 (stereo not shown) (as salt: hydrochloride) (hydrate or solvate) [Example 54, 5-Carboxamide-1,4-dihydro-2,6-dimethyl-4-(4-nitrophenyl)-3-{N-[2-(4,4-diphenylpiperidin-1-yl)ethyl]}carboxamidopyridine hydrochloride hydrate]	193 to 194 °C
COC(=O)C1=C(C)NC(C)=C(C(=O)NCCCN2CCc3cc(OC)c(OC)cc3C2)C1c1ccc([N+](=O)[O-])cc1 (stereo not shown) (as salt: hydrochloride) (hydrate or solvate) [Example 57, 1,4-Dihydro-3-methoxycarbonyl-5-{N-[3-(1,2,3,4-tetrahydro-6,7-dimethoxyisoquinolin-2-yl)propyl]}carboxamido-2,6-dimethyl-4-(4-nitrophenyl)pyridine hydrochloride hydrate]	161 to 162 °C
COC(=O)C1=C(C)NC(C)=C(C(=O)NCCCN2CCc3ccccc3C2)C1c1ccc([N+](=O)[O-])cc1 (stereo not shown) (as salt: hydrochloride) (hydrate or solvate) [Example 59, 1,4-Dihydro-5-{N-[3-(1,2,3,4-tetrahydroisoquinolin-2-yl)propyl]}carboxamido-3-methoxycarbonyl-2,6-dimethyl-4-(4-nitrophenyl)pyridine hydrochloride hydrate]	145 to 146 °C
COC(=O)C1=C(C)NC(c2ccoc2)=C(C(=O)NCCCN2CCC(c3ccccc3)CC2)C1c1ccc([N+](=O)[O-])cc1 (stereo not shown) (as salt: hydrochloride) (hydrate or solvate) [Example 65, 2-(Furan-3-yl)-1,4-dihydro-5-methoxycarbonyl-6-methyl-4-(4-nitrophenyl)-5-{N-[3-(4-phenylpiperidin-1-yl)propyl]}carboxamidopyridine hydrochloride hydrate]	205 to 210 °C (dec.)
CCC1=C(C(=O)NCCCN2CCC(c3ccccc3)CC2)C(c2ccc([N+](=O)[O-])cc2)C(C(=O)OC)=C(C)N1 (stereo not shown) (as salt: hydrochloride) (hydrate or solvate) [Example 74, 2-Ethyl-1,4-dihydro-5-methoxycarbonyl-6-methyl-4-(4-nitro)phenyl-3-(N-(3-(4-phenylpiperidin-1-yl)propyl)) carboxamidopyridine hydrochloride hydrate]	209 to 214 °C (dec.)
COC(=O)C1=C(C)NC(c2ccccc2)=C(C(=O)NCCCN2CCC(c3ccccc3)(c3ccccc3)CC2)C1c1ccc([N+](=O)[O-])cc1 (stereo not shown) (as salt: hydrochloride) (hydrate or solvate) [Example 78, 1,4-Dihydro-5-methoxycarbonyl-6-methyl-4-(4-nitro)phenyl-2-phenyl-3-(N-(3-(4,4-diphenylpiperidin-1-yl)propyl))carboxamidopyridine hydrochloride hydrate]	210 to 215 °C (dec.)
CCC1=C(C(N)=O)C(c2ccc([N+](=O)[O-])cc2)C(C(=O)NCCCN2CCC(O)(c3ccccc3)CC2)=C(CC)N1 (stereo not shown) (as salt: hydrochloride) (hydrate or solvate) [Example 100, 5-Carboxamido-2,6-diethyl-1,4-dihydro-3-{N-(3-(4-hydroxy-4-phenylpiperidin-1-yl)propyl]}carboxamido-4-(4-nitrophenyl)pyridine hydrochloride hydrate]	165 °C (dec.)
CCC1=C(C(N)=O)C(c2ccc([N+](=O)[O-])cc2)C(C(=O)NCCCN2CCN(c3ccccc3)CC2)=C(CC)N1 (stereo not shown) (as salt: hydrochloride) (hydrate or solvate) [Example 104, 5-Carboxamido-2,6-diethyl-1,4-dihydro-4-(4-nitrophenyl)-3-{N-[3-(4-phenylpiperazin-1-yl)propyl]}carboxamido-pyridine hydrochloride hydrate]	160 °C (dec.)
CCC1=C(C(N)=O)C(c2ccc([N+](=O)[O-])cc2)C(C(=O)NCCCN2CCC3(CC2)C(=O)NCN3c2ccccc2)=C(CC)N1 (stereo not shown) (as salt: hydrochloride) (hydrate or solvate) [Example 105, 5-Carboxamido-2,6-diethyl-1,4-dihydro-4-(4-nitrophenyl)-3-{N-[3-(1-phenyl-4-oxo-1,3,8-triazaspiro[4.3]decan-8-yl)propyl]}carboxamidopyridine hydrochloride hydrate]	187 °C (dec.)
CCC1=C(C(N)=O)C(c2ccc([N+](=O)[O-])cc2)C(C(=O)NCCCN2CCC(C)(c3ccccc3)CC2)=C(CC)N1 (stereo not shown) (as salt: hydrochloride) (hydrate or solvate) [Example 106, 5-Carboxamido-2,6-diethyl-1,4-dihydro-3-{N-[3-(4-Methyl-4-phenylpiperidin-1-yl)propyl]}carboxamido-4-(4-nitrophenyl)pyridine hydrochloride hydrate]	166 °C (dec.)
